This is an account of results in US20240091228A1, “Uridine Phosphorylase Inhibitors to Prevent or Treat Drug-Induced Pulmonary Dysfunction” (Tosk, Inc., priority 2021, published 2024).

Data set [1] in a line: side effects of TK-112690.
Another data set relates to UPase. As to conditions: cited from earlier work.
Data set [2] can be described thus: elimination half-life of Compound 1 in mice. As to conditions: mouse, in vivo, read-out: elimination t1/2.
In data set [3] the test system is bleomycin-induced pulmonary fibrosis. Put plainly: bleomycin-induced pulmonary fibrosis study in mice, lung histology (Masson's trichrome, Ashcroft grading). As to conditions: for lower fibrosis (histology score) than mice treated with the dosing vehicle / statistical significance of the fibrosis decrease vs dosing vehicle: C57BL/6 male mice, bleomycin OA day 0, 60 mg/kg IP BID days 7 through 20; for statistical significance of the fibrosis decrease vs dosing vehicle: SPSS. It is filed as in vivo. The text has this:
FIG. 2. Figure is a chart providing histology scores for pulmonary tissue from mice treated with bleomycin (a well characterized lung toxin) and either dosing vehicle, uridine, or TK-112690. Thirty-three C57BL/6 male mice, 10-14 weeks old at study initiation, were acclimatized for least 3 days. The mouse has been selected as is referenced in the literature as a representative species of choice for this experimental animal model. During acclimation and throughout the entire study duration, animals were housed within a limited access rodent facility and kept in groups of a maximum of 4 mice per cage. Mice were housed in polypropylene cages with solid bottoms and wood shavings or corn cobb as bedding material. Animals were provided ad libitum with a commercial rodent diet and had free access to drinking water that is supplied to each cage via polyethylene bottles. The automatically controlled environmental conditions was set to maintain temperature at 20-26° C. with a relative humidity (RH) of 30-70%, a 12:12 hour light: dark cycle, and 10-15 air changes/hour in the study room. Animals were given a unique animal identification tail mark as a means of identification. This number also appeared on a cage card, which was visible on the front of each cage. The cage card also contained the study and group numbers, route of administration, gender, study director, and arrival date.
Animals were randomly assigned to cages upon arrival. Animals were assigned to treatment groups prior to treatment initiation. At study termination, surviving animals were weighed prior to euthanasia. Euthanasia was performed via anesthesia overdose and exsanguination.
The Table below lists the experimental group(s) comprising the study.
Disease Induction. 75 uL of Bleomycin (section 4.5.) was administered on day 0 via oropharyngeal aspiration (OA). The mice were anesthetized via isoflurane/oxygen and suspended by their cranial incisors on a thin wire from an angled stand. The tongue was gently held from the mouth using blunt forceps to visualize the base of the tongue and the pharynx. Bleomycin/saline suspension was pipetted onto posterior pharynx. Nostrils were held gently closed, Respiration was monitored to ensure the suspension is fully aspirated.
Treatment. Groups 3 and 4 were treated via intraperitoneal (IP) injection at a dosing volume of 10 ml/kg twice daily, 6-8 hours between doses, from days 7 through 20.
Observations and Examinations. Clinical signs, humane endpoints, and palliative care were monitored, as follows: changes in skin, fur, eyes, mucus membranes, occurrence of secretions and excretions, autonomic activity, gait, posture, response to handling, abnormal behavior, tremors, convulsions, sleep and coma, labored breathing, and adventitious lung sounds.
The bleomycin administration induced a severe pulmonary inflammation resulting in lethargy, dehydration, and death of diseased animals. Animals in all diseased groups were given fresh diet gel daily beginning on Day 7 and through the remainder of the study. Body weight measurements were performed 3× weekly starting on Day 0 and throughout the rest of the study.
Termination: BALF and tissue collection. Animals were euthanized via isoflurane overdose. Following euthanasia an angiocatheter was inserted into the trachea. […]
Histology. […] Disease severity and collagen levels were assessed by the Ashcroft fibrosis grading system.
The resulting data were analyzed by SPSS, version 20.

The test system of the next data set is hepatic fibrosis. Put plainly: animal model of hepatic fibrosis. It is filed as in vivo. As to conditions: summary statement.
Data set [4] concerns chemotherapy-induced mucositis. The data set is described as follows: mitigation of chemotherapy-induced mucositis. The note with it: in vivo.
A further data set deals with plasma uridine. Put plainly: plasma uridine vs plasma Compound 1 concentration after continuous sc osmotic-pump infusion to mice. The data set is classed as in vivo. As to conditions: BDF-1 male mice, constant-rate sc infusion 667, 833 or 3000 mg/kg/day. On the procedure:
Because uridine is cleared so rapidly, with an elimination half-life (t1/2) only a few minutes,^13 and the elimination t1/2 of Compound 1 in mice is only 1-2 hours, it is very challenging to measure uridine concentrations elevations post discrete doses of Compound I, such as used for ip dosing. For this reason, continuous infusion of Compound 1 (TK-112690) to BDF-1 t mice was administered via sc implanted osmotic pumps, and the uridine plasma concentration was measured. Solutions of Compound 1 were prepared at a concentration of 500 mg/mL in sterile PBS. Osmotic pumps (ALZET® micro-osmotic pump 2001D and 1003D, Alza Co) were loaded with 200 μL. (2001D osmotic pump) and/or 100 μL (1003D osmotic pump) of Compound 1 solution.
BDF-1 male mice (n=6) were treated with a constant-rate infusion of 667, 833 or 3000 mg/kg/day doses of Compound 1 delivered via subcutaneously implanted osmotic pumps. Animals were anesthetized with 100 mg/kg ketamine prior to pump implantation. Surgical scissors were used to make an approximately 1 cm incision on the dorsal surface near the shoulder blade of animals. A hemostat was used to carve out a subcutaneous tunnel toward the anterior end of animal. Osmotic pumps were placed inside the subcutaneous tunnel. Incision was sealed with wound clips.
Blood collections were performed on animals anesthetized with ketamine (ip 100 mg/kg). Blood samples from animals treated with a constant-rate infusion of TK-112690 were collected at 72 hours for 667 mg/kg/day and 833 mg/kg/day, and 24 hours for 3000 mg/kg/day after pump implantation. Whole blood (˜0.8 mL) was drawn through the retro-orbital sinus using a heparin coated micro-hematocrit tubes and collected into EDTA microtainer tubes. Blood samples were transferred into fresh 1.5 mL microcentrifuge tubes and centrifuged for 10 minutes at 14,000×g using an Eppendorf Minispin Plus stored in a 4° C. refrigerator. Exactly 0.4 mL of plasma was transferred into fresh microcentrifuge tubes containing 2 μL of 10 mM 5-FU and vortexed at highest setting for approximately 5 seconds. […]

The conditions of data set [5]: in vivo; cited from earlier work.

`Cc1cn2c(nc1=O)O[C@H]1[C@H](O)[C@@H](CO)O[C@H]12` [TK-112690]: the side effects result in data set [1] is “no known side effects”. Also, the UPase inhibitor entry in the data set on UPase was “authentic UPase inhibitor”. In data set [2], the half-life fell in the range of 60 to 120 min. Besides, in data set [3], the “lower fibrosis (histology score) than mice treated with the dosing vehicle” value came out at 30% and the “statistical significance of the fibrosis decrease vs dosing vehicle” value is recorded as “statistically significant”. Besides, the “protection in bleomycin-induced animal model of pulmonary fibrosis” value in data set [3] (summary statement) is reported as “protects”. Moreover, the “protection in animal model of hepatic fibrosis” value in the data set with hepatic fibrosis was “protects”. Besides, the “efficacy as an agent to mitigate chemotherapy-induced mucositis” value in data set [4] is on record as “proven efficacy”. Besides, in the data set with plasma uridine, the “effect on plasma uridine” value was “elevate plasma uridine in a linear fashion”; the “intercept of regression line, plasma uridine concentration vs plasma Compound 1 concentration” value was 0.051; the “slope of regression line, plasma uridine concentration vs plasma Compound 1 concentration” value is 0.010.
As for `O=c1ccn([C@@H]2O[C@H](CO)[C@@H](O)[C@H]2O)c(=O)[nH]1` [uridine], in data set [3], the “lower fibrosis (histology score) than mice treated with the dosing vehicle” value stood at 7% and the “statistical significance of the fibrosis decrease vs dosing vehicle” value is “not statistically significant”. Moreover, the “elimination half-life (t1/2)” value in data set [5] is listed as “a few minutes”.
